Experimental data from patent US20250230193A1, “CYCLIC COMPOUND HAVING SELECTIVE KRAS INHIBITORY EFFECT ON HRAS AND NRAS” (CHUGAI SEIYAKU KABUSHIKI KAISHA, priority 2022, published 2025).
*1 amine or outer side, *2 acyl side, *3 side chain or, on linkers, in order; H or OH if unused. Where a SMILES comes first, the peptide text is derived from it. Bridges are numbered along the chain shown (N, C = ends). [ ]: non-standard residue; d: D form. The star is where a group is joined. hPhe(3-Cl-4-CF3) = N[C@@H](CCc1ccc(C(F)(F)F)c(Cl)c1)C(=O)O; X47 = O=C([C@H](Cc1ccc(C(F)(F)F)cc1)N(CCCF)[*:1])[*:2]; NPrPhe(4-CF3) = CCCN[C@@H](Cc1ccc(C(F)(F)F)cc1)C(=O)O; NMeGly(cPent) = CN[C@H](C(=O)O)C1CCCC1; NMeD = CN[C@@H](CC(=O)O)C(=O)O; NMeL = CN[C@@H](CC(C)C)C(=O)O; Morpholide = C1CN(*)CCO1; NMeA = CN[C@@H](C)C(=O)O; Ac5c = NC1(C(=O)O)CCCC1; Aze = O=C(O)[C@@H]1CCN1; Sar = CNCC(=O)O

Legend:
[1] = molecular target: GDP-bound HRAS wild-type protein (Homo sapiens, UniProt P01112); experiment: Binding to HRAS by surface plasmon resonance (SPR), Single Cycle Kinetics; conditions: SPR
Chain of GDP-bound HRAS wild-type protein (P01112 whole entry): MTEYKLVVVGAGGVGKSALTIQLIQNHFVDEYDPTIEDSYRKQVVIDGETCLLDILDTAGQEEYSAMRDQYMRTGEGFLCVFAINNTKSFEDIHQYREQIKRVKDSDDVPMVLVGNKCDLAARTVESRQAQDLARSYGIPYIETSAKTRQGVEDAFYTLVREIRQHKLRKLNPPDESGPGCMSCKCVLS

[2] = molecular target: GDP-bound NRAS wild-type protein (Homo sapiens, UniProt P01111); experiment: Binding to NRAS by surface plasmon resonance (SPR), Single Cycle Kinetics; conditions: SPR
Chain of GDP-bound NRAS wild-type protein (P01111 whole entry): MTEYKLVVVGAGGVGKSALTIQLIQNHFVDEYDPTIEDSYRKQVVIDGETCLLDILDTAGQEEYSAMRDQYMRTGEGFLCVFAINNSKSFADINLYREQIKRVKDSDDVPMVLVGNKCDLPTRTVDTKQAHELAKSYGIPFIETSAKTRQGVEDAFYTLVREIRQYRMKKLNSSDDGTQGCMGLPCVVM

[3] = GDP-bound HRAS wild-type vs GDP-bound KRAS wild-type
[4] = GDP-bound NRAS wild-type vs GDP-bound KRAS wild-type

## CCCN1C(=O)[C@@H]2CCN2C(=O)[C@H](C)N(C)C(=O)[C@H]([C@@H](C)CC)NC(=O)[C@H](CC(C)C)N(C)C(=O)C[C@@H](C(=O)N2CCOCC2)N(C)C(=O)[C@H](C2CCCC2)N(C)C(=O)C2(CCCC2)NC(=O)[C@H](C)NC(=O)[C@H](CCc2ccc(C(F)(F)F)c(Cl)c2)NC(=O)CN(C)C(=O)[C@@H]1Cc1ccc(C(F)(F)F)cc1 [PP0153] ([NMeL]I[NMeA][Aze][NPrPhe(4-CF3)][Sar][hPhe(3-Cl-4-CF3)]A[Ac5c][NMeGly(cPent)][NMeD]-Morpholide; lactam N-11)
[1]; KD ratio HRAS/KRAS
  HRAS/KRAS (ratio of KD for GDP-bound HRAS wild-type to KD for KRAS): C (A compound having a KD ratio of 0.1 or more and less than 3 is denoted as C)
[2]; KD ratio NRAS/KRAS
  NRAS/KRAS (ratio of KD for GDP-bound NRAS wild-type to KD for KRAS): C (A compound having a KD ratio of 0.1 or more and less than 3 is denoted as C)

## CCOC[C@H]1C(=O)N[C@@H]([C@@H](C)CC)C(=O)N(C)CC(=O)N(C)[C@H]2C/C=C\CCN(C2=O)[C@@H](Cc2ccc(C)cc2)C(=O)N(C)CC(=O)N[C@@H](CCc2ccc(C(F)(F)F)c(Cl)c2)C(=O)N2C[C@H](OCC)C[C@H]2C(=O)NC2(CC(C)(C)C2)C(=O)N(C)[C@@H](C2CCCC2)C(=O)N(C)[C@H](C(=O)N(C)CC)CC(=O)N1C [PP2401]
[1]; [3]
  HRAS/KRAS (ratio of KD value with respect to HRAS to KD value with respect to KRAS): A (a compound having 10 or more and less than 20 is denoted as A)
[2]; [4]
  NRAS/KRAS (ratio of KD value with respect to NRAS to KD value with respect to KRAS): A (a compound having 10 or more and less than 20 is denoted as A)

## CCO[C@@H]1C[C@H]2C(=O)NC3(CC(C)(C)C3)C(=O)N(C)[C@@H](C(CC)CC)C(=O)N(C)[C@H](C(=O)N(C)C)CC(=O)N(C)[C@@H](CC3CC3)C(=O)N[C@@H]([C@@H](C)CC)C(=O)N(C)CC(=O)N(C)[C@H]3C/C=C\CCN(C3=O)[C@@H](Cc3ccc(C)cc3)C(=O)N(C)CC(=O)N[C@@H](CCc3ccc(C(F)(F)F)c(Cl)c3)C(=O)N2C1 [PP2142]
[1]; [3]
  HRAS/KRAS (ratio of KD value with respect to HRAS to KD value with respect to KRAS): A (a compound having 10 or more and less than 20 is denoted as A)
[2]; [4]
  NRAS/KRAS (ratio of KD value with respect to NRAS to KD value with respect to KRAS): AA (a compound having 20 or more is denoted as AA)

## CC[C@H](C)[C@@H]1NC(=O)[C@H](CC(C)C)N(C)C(=O)C[C@@H](C(=O)N2CCOCC2)N(C)C(=O)[C@H](C2CCCC2)N(C)C(=O)C2(CCCC2)NC(=O)[C@@H]2CCCN2C(=O)[C@H](CCc2ccc(C(F)(F)F)c(Cl)c2)NC(=O)CN(C)C(=O)[C@H](Cc2ccc(C(F)(F)F)cc2)N(CCCF)C(=O)[C@@H]2CCN2C(=O)[C@H](C)N(C)C1=O [PP0525] ([NMeL]I[NMeA][Aze][X47][Sar][hPhe(3-Cl-4-CF3)]P[Ac5c][NMeGly(cPent)][NMeD]-Morpholide; lactam N-11)
[1]; KD ratio HRAS/KRAS
  HRAS/KRAS (ratio of KD value with respect to GDP-bound HRAS wild-type protein to KD value with respect to KRAS): B (a compound having 3 or more and less than 10 is denoted as B)
[2]; KD ratio NRAS/KRAS
  NRAS/KRAS (ratio of KD value with respect to GDP-bound NRAS wild-type protein to KD value with respect to KRAS): C (A compound having a KD ratio of 0.1 or more and less than 3 is denoted as C)

## CC[C@H](C)[C@@H]1NC(=O)[C@H](CC)N(C)C(=O)C[C@@H](C(=O)N(C)CC)N(C)C(=O)[C@H](C2CCCC2)N(C)C(=O)C2(CCC2)NC(=O)[C@@H]2C[C@@H](C)CN2C(=O)[C@H](CCc2ccc(C(F)(F)F)c(OC)c2)NC(=O)CN(C)C(=O)[C@H](Cc2ccc(C)cc2)N2CC/C=C\C[C@@H](C2=O)N(C)C(=O)CN(C)C1=O [PP1855]
[1]; KD ratio, GDP-bound HRAS wild-type vs GDP-bound KRAS wild-type
  HRAS/KRAS (ratio of KD value for HRAS to KD value for KRAS): A (a compound having 10 or more and less than 20 is denoted as A)
[2]; KD ratio, GDP-bound NRAS wild-type vs GDP-bound KRAS wild-type
  NRAS/KRAS (ratio of KD value for NRAS to KD value for KRAS): AA (a compound having 20 or more is denoted as AA)

## CCO[C@@H]1C[C@H]2C(=O)NC3(CC(C)(C)C3)C(=O)N(C)[C@@H](C3CCCC3)C(=O)N(C)[C@H](C(=O)N(C)C)CC(=O)N(C)[C@@H](CC)C(=O)N[C@@H]([C@@H](C)CC)C(=O)N(C)CC(=O)N(C)[C@H]3C/C=C\CCN(C3=O)[C@@H](Cc3ccc(Cl)cc3F)C(=O)N(C)CC(=O)N[C@@H](CCc3cc(F)c(C(F)(F)F)c(F)c3)C(=O)N2C1 [PP2048]
[1]; [3]
  HRAS/KRAS (ratio of KD value with respect to HRAS to KD value with respect to KRAS): B (a compound having 3 or more and less than 10 is denoted as B)
[2]; [4]
  NRAS/KRAS (ratio of KD value with respect to NRAS to KD value with respect to KRAS): A (a compound having 10 or more and less than 20 is denoted as A)

## CC[C@H](C)[C@@H]1NC(=O)[C@H](CC(F)(F)F)N(C)C(=O)C[C@@H](C(=O)N2CCOCC2)N(C)C(=O)[C@H](C2CCCC2)N(C)C(=O)C2(CCCC2)NC(=O)[C@@H]2CCCN2C(=O)[C@H](CCc2cc(F)c(C(F)(F)F)c(F)c2)NC(=O)CN(C)C(=O)[C@H](Cc2ccc(C(F)(F)F)cc2)N2CCCCC[C@@H](C2=O)N(C)C(=O)CN(C)C1=O [PP0520]
[1]; KD ratio HRAS/KRAS
  HRAS/KRAS (ratio of KD value with respect to GDP-bound HRAS wild-type protein to KD value with respect to KRAS): B (a compound having 3 or more and less than 10 is denoted as B)
[2]; KD ratio NRAS/KRAS
  NRAS/KRAS (ratio of KD value with respect to GDP-bound NRAS wild-type protein to KD value with respect to KRAS): B (a compound having 3 or more and less than 10 is denoted as B)
